BindingDB's records for doi:10.1021/acsmedchemlett.7b00157 (Novartis Institutes For Biomedical Research, 2017)
pIC50: −log10 of the molar value.

Experiments:
[1] = Antagonist activity at DP2 receptor in human whole assessed as inhibition of DK-PGD2-induced eosinophils shape change preincubated for 5 mins followed by DK-PGD2 addition measured after 5 mins by flow cytometry
[2] = biological target: T1, Prostaglandin D2 receptor 2 (Homo sapiens, UniProt Q9Y5Y4); experiment: Antagonist activity at DP2 receptor in human whole assessed as inhibition of DK-PGD2-induced eosinophils shape change preincubated for 5 mins followed by DK-PGD2 addition measured after 5 mins by flow cytometry
T1 sequence (Q9Y5Y4 whole entry): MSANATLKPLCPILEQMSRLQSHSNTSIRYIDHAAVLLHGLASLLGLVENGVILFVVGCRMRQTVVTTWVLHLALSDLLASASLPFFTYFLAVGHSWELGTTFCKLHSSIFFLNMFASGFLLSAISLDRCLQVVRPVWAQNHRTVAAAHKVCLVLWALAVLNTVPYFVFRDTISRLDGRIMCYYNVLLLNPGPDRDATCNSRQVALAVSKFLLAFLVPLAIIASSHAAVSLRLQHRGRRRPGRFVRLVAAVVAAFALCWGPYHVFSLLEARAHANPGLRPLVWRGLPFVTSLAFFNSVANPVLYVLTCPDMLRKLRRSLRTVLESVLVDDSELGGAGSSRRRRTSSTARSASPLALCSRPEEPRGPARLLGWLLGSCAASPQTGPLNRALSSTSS

Row | Compound | pIC50 [1] | pIC50 [2]
1 | CCS(=O)(=O)c1ccc(Cn2c(C)c(CC(=O)O)c3cccnc32)c(Cl)c1 |  | 8.15
2 | Cc1c(CC(=O)O)c2ccccc2n1Cc1ccc(S(C)(=O)=O)cc1 | 6.73 | 
3 | Cc1c(CC(=O)O)c2cccnc2n1Cc1ccc(C(F)(F)F)cc1C(F)(F)F | 6.67 | 

Further lines, results first:

Row | pIC50 [1] | pIC50 [2] | Compound
4 | 7.49 |  | Cc1cc(S(C)(=O)=O)ccc1Cn1c(C)c(CC(=O)O)c2cccnc21
5 | 8.40 |  | CCS(=O)(=O)c1ccc(Cn2c(C)c(CC(=O)O)c3cccnc32)c(C(F)(F)F)c1
6 | 7.33 |  | Cc1c(CC(=O)O)c2cccnc2n1Cc1ccc(S(C)(=O)=O)cc1Cl
7 | 7.96 |  | Cc1c(CC(=O)O)c2cccnc2n1Cc1ccc(S(C)(=O)=O)c(C(F)(F)F)c1
